In EP0377642B1, “HERBICIDES FOR WEED CONTROL IN RICE” (E.I. DU PONT DE NEMOURS AND COMPANY, priority 1987, dated 1989):
Read-outs that look alike come from different tables or passages of the source.

Tests used:
Assay type in all cases: in vivo
direct seeded rice [1] = assay: Field test with Bensulfuron methyl in direct seeded rice, yield (Table 10)
Text: (§1) Methyl 2-[[[[(4-methoxy-6-methyl-1,3,5-triazin-2-yl)amino]carbonyl]amino]sulfonyl]benzoate (Compound 1) and mixtures thereof with other compounds were applied as a spray (using a hand sprayer) to rice (either transplanted or direct seeded) in several rice growing areas in Southeast Asia and in the U.S. Tables 1-28 contain the results of these tests and clearly exemplify the utility of this invention. The details of each application are included in the appropriate table. [drawing 2]

WEED = assay: Field test applied 7 DAS in direct seeded rice in the Philippines, weed cover (Table 14); conditions: 47 DAA
Text: as §1

[2] = tested on: Barnyardgrass (Echinochloa crus-galli); assay: Field test applied 7 DAS in direct seeded rice in the Philippines, cover (Table 14); conditions: 47 DAA
Text: as §1

SEDGE = assay: as above; conditions: 47 DAA
Text: as §1

direct seeded rice [3] = conditions: for PHYTO at 2WAA: scale 0-10
Text: as §1

Sphenoclea zeylanica [4] = assay: Herbicidal efficacy with Bensulfuron methyl and 2,4-D in Thailand (Table 18); conditions: 13 days after treatment
Text: as §1

Cyperus difformis = assay: as above; conditions: 13 days after treatment
Text: as §1

rice = assay: as above; conditions: 13 days after treatment
Text: as §1

FIMBRISTYLIS MILIACEA = assay: Field test applied at 18 DAS in direct seeded rice (Table 12); conditions: scale 0-10
Text: as §1

Sphenoclea zeylanica [5] = assay: as above; conditions: scale 0-10
Text: as §1

Cyperus iria [6] = assay: as above; conditions: scale 0-10
Text: as §1

Jussiaea linifolia = assay: as above; conditions: scale 0-10
Text: as §1

Sphenoclea zeylanica [7] = assay: Field test applied at 25 DAS in direct seeded rice (Table 13); conditions: scale 0-10
Text: as §1

Cyperus iria [8] = assay: as above; conditions: scale 0-10
Text: as §1

SMILES: COC(=O)c1ccccc1CS(=O)(=O)NC(=O)Nc1nc(OC)cc(OC)n1 [Bensulfuron methyl, methyl 2-[[[[[(4,6-dimethoxy-2-pyrimidinyl)amino]carbonyl]amino]sulfonyl]methyl]benzoate]
- YIELD (direct seeded rice [1]; 10 GAI/HA): 3.04 TONS/HA
- YIELD (direct seeded rice [1]; 20 GAI/HA): 3.34 TONS/HA
- % WEED COVER (WEED; 8.25 G AI/HA): 29%
- % WEED COVER (WEED; 12.0 G AI/HA): 20%
- % WEED COVER (WEED; 16.50 G AI/HA): 28%
- % BYG COVER ([2]; 8.25 G AI/HA): 29%
- % BYG COVER ([2]; 12.0 G AI/HA): 17%
- % BYG COVER ([2]; 16.50 G AI/HA): 28%
- % SEDGE COVER (SEDGE; 8.25 G AI/HA): 4%
- % SEDGE COVER (SEDGE; 12.0 G AI/HA): 2%
- % SEDGE COVER (SEDGE; 16.50 G AI/HA): 2%
- YIELD (direct seeded rice [3]; 7 DAS, 10 GM.A.I./HA): 4.92 TONS/HA
- PHYTO at 2WAA (direct seeded rice [3]; 7 DAS, 10 GM.A.I./HA): 0
- YIELD (direct seeded rice [3]; 7 DAS, 15 GM.A.I./HA): 4.99 TONS/HA
- PHYTO at 2WAA (direct seeded rice [3]; 7 DAS, 15 GM.A.I./HA): 0
- YIELD (direct seeded rice [3]; 7 DAS, 20 GM.A.I./HA): 5.01 TONS/HA
- PHYTO at 2WAA (direct seeded rice [3]; 7 DAS, 20 GM.A.I./HA): 0
- YIELD (direct seeded rice [3]; 7 DAS, 30 GM.A.I./HA): 4.67 TONS/HA
- PHYTO at 2WAA (direct seeded rice [3]; 7 DAS, 30 GM.A.I./HA): 0
- YIELD (direct seeded rice [3]; 18 DAS, 10 GM.A.I./HA): 4.61 TONS/HA
- PHYTO at 2WAA (direct seeded rice [3]; 18 DAS, 10 GM.A.I./HA): 0
- YIELD (direct seeded rice [3]; 18 DAS, 15 GM.A.I./HA): 4.49 TONS/HA
- PHYTO at 2WAA (direct seeded rice [3]; 18 DAS, 15 GM.A.I./HA): 0
- YIELD (direct seeded rice [3]; 18 DAS, 20 GM.A.I./HA): 4.61 TONS/HA
- PHYTO at 2WAA (direct seeded rice [3]; 18 DAS, 20 GM.A.I./HA): 0
- YIELD (direct seeded rice [3]; 18 DAS, 30 GM.A.I./HA): 5.17 TONS/HA
- PHYTO at 2WAA (direct seeded rice [3]; 18 DAS, 30 GM.A.I./HA): 0
- % CONTROL OR INJURY SZ (Sphenoclea zeylanica [4]; 10 GAI/HA): 99%
- % CONTROL OR INJURY SZ (Sphenoclea zeylanica [4]; 15 GAI/HA): 100%
- % CONTROL OR INJURY SZ (Sphenoclea zeylanica [4]; 20 GAI/HA): 100%
- % CONTROL OR INJURY CD (Cyperus difformis; 10 GAI/HA): 100%
- % CONTROL OR INJURY CD (Cyperus difformis; 15 GAI/HA): 100%
- % CONTROL OR INJURY CD (Cyperus difformis; 20 GAI/HA): 100%
- % CONTROL OR INJURY RICE (rice; 10 GAI/HA): 0%
- % CONTROL OR INJURY RICE (rice; 15 GAI/HA): 0%
- % CONTROL OR INJURY RICE (rice; 20 GAI/HA): 0%
- WEED CONTROL at 6 WAA FM (FIMBRISTYLIS MILIACEA; 10 GM.A.I./HA): 10
- WEED CONTROL at 6 WAA FM (FIMBRISTYLIS MILIACEA; 15 GM.A.I./HA): 9.67
- WEED CONTROL at 6 WAA FM (FIMBRISTYLIS MILIACEA; 20 GM.A.I./HA): 10
- WEED CONTROL at 6 WAA FM (FIMBRISTYLIS MILIACEA; 30 GM.A.I./HA): 10
- WEED CONTROL at 6 WAA SZ (Sphenoclea zeylanica [5]; 10 GM.A.I./HA): 5.67
- WEED CONTROL at 6 WAA SZ (Sphenoclea zeylanica [5]; 15 GM.A.I./HA): 6.67
- WEED CONTROL at 6 WAA SZ (Sphenoclea zeylanica [5]; 20 GM.A.I./HA): 5.67
- WEED CONTROL at 6 WAA SZ (Sphenoclea zeylanica [5]; 30 GM.A.I./HA): 9.67
- WEED CONTROL at 6 WAA CI (Cyperus iria [6]; 10 GM.A.I./HA): 6.67
- WEED CONTROL at 6 WAA CI (Cyperus iria [6]; 15 GM.A.I./HA): 9.0
- WEED CONTROL at 6 WAA CI (Cyperus iria [6]; 20 GM.A.I./HA): 9.33
- WEED CONTROL at 6 WAA CI (Cyperus iria [6]; 30 GM.A.I./HA): 9.67
- WEED CONTROL at 6 WAA JL (Jussiaea linifolia; 10 GM.A.I./HA): 8.0
- WEED CONTROL at 6 WAA JL (Jussiaea linifolia; 15 GM.A.I./HA): 7.67
- WEED CONTROL at 6 WAA JL (Jussiaea linifolia; 20 GM.A.I./HA): 9.50
- WEED CONTROL at 6 WAA JL (Jussiaea linifolia; 30 GM.A.I./HA): 8.67
- WEED CONTROL at 6 WAA SZ (Sphenoclea zeylanica [7]; 10 GM.A.I./HA): 9.17
- WEED CONTROL at 6 WAA SZ (Sphenoclea zeylanica [7]; 15 GM.A.I./HA): 9.80
- WEED CONTROL at 6 WAA SZ (Sphenoclea zeylanica [7]; 20 GM.A.I./HA): 9.50
- WEED CONTROL at 6 WAA SZ (Sphenoclea zeylanica [7]; 30 GM.A.I./HA): 9.93
- WEED CONTROL at 6 WAA CI (Cyperus iria [8]; 10 GM.A.I./HA): 9.67
- WEED CONTROL at 6 WAA CI (Cyperus iria [8]; 15 GM.A.I./HA): 9.83
- WEED CONTROL at 6 WAA CI (Cyperus iria [8]; 20 GM.A.I./HA): 10
